Laboratory results: patent publication US20050074834A1 (priority 2001, published 2005)
“Also recorded” adds a separate entry of the source. Structures can show the parent of a compound that is named as a salt.

How the values were obtained:
[1] = tested on: chromatophores; assay type: cell-based
[2] = tested on: chromatophores
[3] = tested on: chromatophore/neuronal cell; assay type: cell-based
[4] = tested on: chromatophores; experiment: cells; details: read-out: Threshold concentration PPM
[5] = tested on: melanophores; assay type: cell-based
[6] = tested on: erythrophores; assay type: cell-based
[7] = tested on: iridophores; assay type: cell-based
[8] = tested on: Betta chromatophores; assay type: cell-based
[9] = tested on: Hemichromis bimaculatus chromatophores; assay type: cell-based
[10] = tested on: Betta splendens chromatophores; assay type: cell-based
[11] = tested on: chromatophore/protozoal cell; assay type: cell-based
[12] = tested on: xanthophores; assay type: cell-based
[13] = tested on: Betta chromatophores; assay type: cell-based, Betta splendens
[14] = tested on: chromatophore/bacterial cell; assay type: cell-based
[15] = tested on: chromatophore/fungal cell; assay type: cell-based
[16] = tested on: Betta splendens erythrophores; assay type: cell-based
[17] = tested on: ryanodine receptors; details: cited from earlier work
[18] = tested on: fish chromatophores; assay type: cell-based

C=C[C@@]1(C)CC(=O)[C@]2(O)[C@@]3(C)[C@@H](O)CCC(C)(C)[C@@H]3[C@H](O)[C@H](OC(C)=O)[C@@]2(C)O1 [Forskolin]
concentration printed for an analyte to which chromatophores respond [1]: 0.01 µM | Threshold concentration PPB [2]: XX (key: X=1 to 100 PPB; XX=100 to 1000 PPB)

Cn1c(=O)c2c(ncn2C)n(C)c1=O [Caffeine]
concentration printed for an analyte to which chromatophores respond [1]: 100 µM | Threshold concentration PPB [2]: XXX

C[N+](C)(C)CCOC(N)=O [Carbachol]
2-Cell Cytosensor (second cell type included) [3]: Erythr. Aggr. | minimal effective concentration [4]: 1 to 100 µg/mL

Nc1ncnc2c1ncn2[C@@H]1O[C@H](COP(=O)(O)OP(=O)(O)OP(=O)(O)O)[C@@H](O)[C@H]1O [ATP]
2-Cell Cytosensor (second cell type included) [3]: Erythr. Aggr. | Threshold concentration PPM [2]: X (key: X=1 to 100 PPM; XX=100 to 1000 PPM)

COC(=O)C=C(C)OP(=O)(OC)OC [Mevinphos]
Chromatophore response Melanophores [5]: Imp. | Chromatophore response Erythrophores [6]: Imp. (FS) | Chromatophore response Iridophores [7]: Hue change, then Imp. | Response time Hr. [2]: X (key: X=1-6 hr; XX=6-24 hr)

CCOP(=O)(OCC)Oc1ccc([N+](=O)[O-])cc1 [Paraoxon]
Chromatophore response Melanophores [5]: A/I (FS) | Chromatophore response Erythrophores [6]: Aggr. (FS) | Chromatophore response Iridophores [7]: Hue changes (FS)

Cholera toxin
Chromatophore response Erythrophores [6]: Imp. | chromatophore appearance after exposure [8]: Pigment aggregation is evident | pigment aggregation in response to norepinephrine after pre-incubation with CTX [8]: impaired pigment aggregation in response to NE | selective sensitivity of color classes of chromatophores [8]: selective sensitivity of erythrophores to cholera toxin | change of appearance of Hemichromis bimaculatus chromatophores [9]: change the appearance | erythrophore response upon norepinephrine exposure [9]: impaired | melanophore response upon challenge by norepinephrine [9]: unimpaired | concentration at which inhibition of norepinephrine induced pigment aggregation is detected [10]: ≥ 1 ng/mL | effect on Betta splendens chromatophores [10]: causes hyperdispersion | Response time Hr. [2]: X (key: X=1-6 hr; XX=6-24 hr) | Threshold concentration PPM [2]: X (key: X=1 to 100 PPM; XX=100 to 1000 PPM)

C=C[C@H]1C[N@@]2CC[C@H]1C[C@H]2[C@H](O)c1ccnc2ccc(OC)cc12 [Quinine sulfate]
2-Cell Cytosensor (second cell type included) [11]: Normal | Response time Hr. [2]: XX (key: X=1-6 hr; XX=6-24 hr) | minimal effective concentration [4]: 100 to 1000 µg/mL

Cc1ncc([N+](=O)[O-])n1CCO [Metronidazole]
2-Cell Cytosensor (second cell type included) [11]: Normal | Response time Hr. [2]: XX (key: X=1-6 hr; XX=6-24 hr) | minimal effective concentration [4]: 1 to 100 µg/mL

c1ccc2c(CC3=NCCN3)cccc2c1 [Naphazoline]
Chromatophore response Xanthophores [12]: Disp. | Threshold concentration PPB [2]: XX (key: X=1 to 100 PPB; XX=100 to 1000 PPB)

CCN(CC)CCCC(C)Nc1ccnc2cc(Cl)ccc12 (centres unmarked) [Chloroquine]
2-Cell Cytosensor (second cell type included) [11]: Normal | Response time Hr. [2]: XX (key: X=1-6 hr; XX=6-24 hr) | minimal effective concentration [4]: 100 to 1000 µg/mL

NC[C@H](O)c1ccc(O)c(O)c1 [Norepinephrine]
Chromatophore response Xanthophores [12]: Disp. | Chromatophore response Iridophores [7]: Hue changes (FS) | appearance of Betta chromatophores after exposure [8]: aggregation of chromatophore pigment is apparent | change of appearance of Hemichromis bimaculatus chromatophores [9]: change the appearance | response time of the cytosensor [13]: less than 1 minute

CCn1cc(C(=O)O)c(=O)c2ccc(C)nc21 [Nalidixic acid]
2-Cell Cytosensor (second cell type included) [14]: Normal | Response time Hr. [2]: XX (key: X=1-6 hr; XX=6-24 hr) | minimal effective concentration [4]: 1 to 100 µg/mL

C[C@@H]1[C@H](O)[C@@H](C)/C=C/C=C/C=C/C=C/C=C/C=C/C=C/[C@H](O[C@@H]2O[C@H](C)[C@@H](O)[C@H](N)[C@@H]2O)C[C@@H]2O[C@](O)(C[C@@H](O)C[C@@H](O)[C@H](O)CC[C@@H](O)C[C@@H](O)CC(=O)O[C@H]1C)C[C@H](O)[C@H]2C(=O)O [Amphotericin B]
2-Cell Cytosensor (second cell type included) [15]: Normal | Response time Hr. [2]: XX (key: X=1-6 hr; XX=6-24 hr) | Threshold concentration PPM [2]: X (key: X=1 to 100 PPM; XX=100 to 1000 PPM)

Ryanodine
Morphology Effect: Aggregation [16]: Yes and No | Morphology Effect: Dispersion [16]: No | Chromatophore response Erythrophores [6]: Aggr. | Threshold concentration PPB [2]: XX (key: X=1 to 100 PPB; XX=100 to 1000 PPB) | concentrations at which ryanodine acts as an antagonist of the same receptors [17]: > 1 µM

Penicillin
2-Cell Cytosensor (second cell type included) [14]: Normal | Response time Hr. [2]: XX (key: X=1-6 hr; XX=6-24 hr) | Threshold concentration PPM [2]: X (key: X=1 to 100 PPM; XX=100 to 1000 PPM)

c1ccc2c(c1)CCCC2C1=NCCN1 (centres unmarked) [Tetrahydrozoline]
Chromatophore response Xanthophores [12]: Disp. | Threshold concentration PPB [2]: XX (key: X=1 to 100 PPB; XX=100 to 1000 PPB)

Clc1cccc(Cl)c1N=C1NCCN1 [Clonidine]
Chromatophore response Xanthophores [12]: Disp. | chromatophore response after forskolin and PMSF [18]: no aggregation occurred | chromatophore response in the absence of forskolin [18]: aggregate; also recorded: aggregation | chromatophore response in the presence of forskolin [18]: unresponsive; also recorded: not detectable | Threshold concentration PPB [2]: XX (key: X=1 to 100 PPB; XX=100 to 1000 PPB)

Cc1cc(C(C)(C)C)c(O)c(C)c1CC1=NCCN1 [Oxymetazoline]
Chromatophore response Xanthophores [12]: Disp. | Threshold concentration PPB [2]: XX (key: X=1 to 100 PPB; XX=100 to 1000 PPB)

[H]/N=C(/N)N[C@H]1[C@H](O)[C@@H](O)[C@H](O[C@@H]2O[C@@H](C)[C@](O)(C=O)[C@H]2O[C@@H]2O[C@@H](CO)[C@H](O)[C@@H](O)[C@@H]2NC)[C@@H](N/C(N)=N\[H])[C@@H]1O [Streptomycin]
2-Cell Cytosensor (second cell type included) [14]: Normal | Response time Hr. [2]: XX (key: X=1-6 hr; XX=6-24 hr) | minimal effective concentration [4]: 1 to 100 µg/mL
